From publication PMC3265452 (PLoS Neglected Tropical Diseases, 2012)
Counter-ions that a name gives are not always drawn. Like-named read-outs stand apart in the source and are kept apart here.

Biological target: AaDOP2 (Aedes aegypti, UniProt H6D5H2)
Experiment: AaDOP2 antagonist screen of the LOPAC1280 library (HEK-CRELuc-Aadop2 cells, luminescence)
Format: cell-based
[1] = 10 µM compound, 300 nM dopamine, 2 hr, hit = compound effect <20

Chain of AaDOP2 (H6D5H2 1-476): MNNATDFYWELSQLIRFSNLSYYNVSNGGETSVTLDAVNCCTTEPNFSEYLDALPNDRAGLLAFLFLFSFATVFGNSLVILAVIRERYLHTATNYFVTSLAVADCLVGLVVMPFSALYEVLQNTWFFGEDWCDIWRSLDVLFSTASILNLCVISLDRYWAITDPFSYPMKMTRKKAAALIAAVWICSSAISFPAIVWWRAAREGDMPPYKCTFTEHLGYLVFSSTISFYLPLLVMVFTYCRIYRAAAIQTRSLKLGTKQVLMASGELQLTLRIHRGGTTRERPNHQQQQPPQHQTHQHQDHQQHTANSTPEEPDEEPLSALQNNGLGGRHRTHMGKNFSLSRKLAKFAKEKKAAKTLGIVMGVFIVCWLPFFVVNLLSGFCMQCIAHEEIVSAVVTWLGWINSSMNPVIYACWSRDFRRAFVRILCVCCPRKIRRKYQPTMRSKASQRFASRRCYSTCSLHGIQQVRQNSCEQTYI

Structure (SMILES) | Compound effect (percent receptor signaling in presence of test compound, relative lux units relative to the SCH23390 control) | other results
OC[C@H]1O[C@@H](n2cnc3c(NC4CCCC4)ncnc32)[C@H](O)[C@@H]1O [Compound 303, N6-Cyclopentyladenosine] | 89 | –
CC1(C(=O)O)C2CCC(O2)C1(C)C(=O)O (stereo not drawn) [Compound 304, Cantharidic Acid] | 120 | –
CN(C)CCCN1c2ccccc2Sc2ccc(Cl)cc21 [Compound 305, Chlorpromazine hydrochloride] | 95 | –
NC(=O)c1cc[n+](CC2=C(C(=O)[O-])N3C(=O)[C@@H](NC(=O)[C@@H](c4ccccc4)S(=O)(=O)[O-])[C@H]3SC2)cc1.[Na+] [Compound 306, Cefsulodin sodium salt hydrate] | – | Compound effect (percent receptor signaling in presence of test compound, relative lux units relative to the SCH23390 control) [1]: 108%
O=C(/C=C/c1ccc(O)c(O)c1)OCCc1ccccc1 [Compound 307, Caffeic acid phenethyl ester] | 147 | –
CC(=O)OCC1=C(C(=O)O)N2C(=O)[C@@H](NC(=O)CSc3ccncc3)[C@H]2SC1 [Compound 308, Cephapirin sodium] | 116 | –
CC1=C(C(=O)O)N2C(=O)[C@@H](NC(=O)[C@H](N)C3=CCC=CC3)[C@H]2SC1 [Compound 309, Cephradine] | 79 | –
CCN(CCCl)Cc1ccccc1Br.Cl [Compound 310, DSP-4 hydrochloride] | 111 | –
CCn1nc(C(=O)O)c(=O)c2cc3c(cc21)OCO3 [Compound 311, Cinoxacin] | 135 | –
CCCC(C)(COC(N)=O)COC(=O)NC(C)C (stereo not drawn) [Compound 312, Carisoprodol] | 130 | –
CN(C)CCOC(=O)COc1ccc(Cl)cc1 [Compound 313, Centrophenoxine hydrochloride] | 99 | –
Cl.N[C@@H](CCl)C(=O)O [Compound 315, beta-Chloro-L-alanine hydrochloride] | 99 | –
Oc1ccccc1O [Compound 316, Pyrocatechol] | 101 | –
O=C(N[C@@H](Cc1ccccc1)C(=O)CCl)OCc1ccccc1 [Compound 317, Z-L-Phe chloromethyl ketone] | 124 | –
COc1cc2c(c(OC)c1OC)-c1ccc(OC)c(=O)cc1[C@@H](NC(C)=O)CC2 [Compound 319, Colchicine] | 131 | –
NC(N)=NOCC[C@H](N)C(=O)O.O=S(=O)(O)O [Compound 320, L-Canavanine sulfate] | 92 | –
NS(=O)(=O)c1cc2c(cc1Cl)NC(C1CC3C=CC1C3)NS2(=O)=O (stereo not drawn) [Compound 321, Cyclothiazide] | 93 | –
OC[C@H]1O[C@@H](n2cnc3c(NC4CCCCC4)ncnc32)[C@H](O)[C@@H]1O [Compound 322, N6-Cyclohexyladenosine] | 100 | –
CC[C@@]1(O)C(=O)OCc2c1cc1n(c2=O)Cc2cc3ccccc3nc2-1 [Compound 323, (S)-(+)-Camptothecin] | 7 | % of the SCH23390 effect (percent inhibition of receptor response relative to the SCH23390 control): 93%
CCN(CC)C(C)C(=O)N1c2ccccc2Sc2ccccc21.Cl (stereo not drawn) [Compound 324, 10-(alpha-Diethylaminopropionyl)-phenothiazine hydrochloride] | 56 | –
CCCn1c(=O)c2[nH]c(C3CCCC3)nc2n(CCC)c1=O [Compound 327, 8-Cyclopentyl-1,3-dipropylxanthine] | 111 | –
Cn1c(=O)c2[nH]c(C3CCCC3)nc2n(C)c1=O [Compound 328, 8-Cyclopentyl-1,3-dimethylxanthine] | 93 | –
CN1CCN(c2nc3cc(C(F)(F)F)ccc3n3cccc23)CC1.O=C(O)/C=C\C(=O)O [Compound 330, CGS-12066A maleate] | – | Compound effect (percent receptor signaling in presence of test compound, relative lux units relative to the SCH23390 control) [1]: 104%
Cl.NCC(O)C1CCCCCCC1 (stereo not drawn) [Compound 331, 2-Cyclooctyl-2-hydroxyethylamine hydrochloride] | 95 | –
NCCc1c[nH]c2ccc(C(N)=O)cc12.O=C(O)/C=C\C(=O)O [Compound 332, 5-Carboxamidotryptamine maleate] | 119 | –

Structure (SMILES) | Compound effect (percent receptor signaling in presence of test compound, relative lux units relative to the SCH23390 control) | other results
O=C(O)c1cc(O)c2ccc(Cl)cc2n1 [Compound 333, 7-Chlorokynurenic acid] | 79 | –
C[C@@](Cc1ccc(O)c(O)c1)(NN)C(=O)O [Compound 335, S-(-)-Carbidopa] | – | Compound effect (percent receptor signaling in presence of test compound, relative lux units relative to the SCH23390 control) [1]: 112%
CCNC(=O)[C@H]1O[C@@H](n2cnc3c(N)nc(NCCc4ccc(CCC(=O)O)cc4)nc32)[C@H](O)[C@@H]1O.Cl [Compound 337, CGS-21680 hydrochloride] | 112 | –
OC[C@H]1O[C@@H](n2cnc3c(NC4CCCC4)nc(Cl)nc32)[C@H](O)[C@@H]1O [Compound 338, 2-Chloro-N6-cyclopentyladenosine] | 92 | –
Cl.N=C(N)NC(=N)Nc1cccc(Cl)c1 [Compound 339, 1-(m-Chlorophenyl)-biguanide hydrochloride] | 83 | –
Nc1nc(Cl)nc2c1ncn2[C@@H]1O[C@H](COP(=O)([O-])OP(=O)([O-])OP(=O)([O-])[O-])[C@@H](O)[C@H]1O.[Na+].[Na+].[Na+].[Na+] [Compound 340, 2-Chloroadenosine triphosphate tetrasodium] | 102 | –
Oc1cc2c(cc1O)CN(C(=S)NCCc1ccc(Cl)cc1)CCC2 [Compound 342, Capsazepine] | 69 | –
CN1C(=O)CCS(=O)(=O)C1c1ccc(Cl)cc1 (stereo not drawn) [Compound 343, Chlormezanone] | 93 | –
Cn1c(=O)c2c(nc(C=Cc3cccc(Cl)c3)n2C)n(C)c1=O [Compound 344, 8-(3-Chlorostyryl)caffeine] | 91 | –
Nc1nc2ccc(Cl)cc2c2nc(-c3ccco3)nn12 [Compound 345, CGS-15943] | 117 | –
O=C[C@H](Cl)[C@@H](O)[C@H](O)[C@H](O)CO [Compound 346, 2-Chloro-2-deoxy-D-glucose] | 114 | –
CN1C2CCC1CC(OC(c1ccccc1)c1ccc(Cl)cc1)C2.Cl (stereo not drawn) [Compound 347, 4'-Chloro-3-alpha-(diphenylmethoxy)tropane hydrochloride] | 15 | % of the SCH23390 effect (percent inhibition of receptor response relative to the SCH23390 control): 85%
c1ccc(C2CC2)c(OCC2=NCCN2)c1 [Compound 348, Cirazoline hydrochloride] | 74 | –
CS(=O)(=O)O.Cn1cc(C(F)(F)F)nc1-c1ccc(OCC(O)CNCCOc2ccc(O)c(C(N)=O)c2)cc1 (stereo not drawn) [Compound 349, CGP 20712A methanesulfonate] | – | Compound effect (percent receptor signaling in presence of test compound, relative lux units relative to the SCH23390 control) [1]: 92%
N[C@H](C(=O)O)[C@H]1C[C@@H]1C(=O)O [Compound 350, (2S,1'S,2'S)-2-(carboxycyclopropyl)glycine] | 97 | –
N#Cc1cc2nc([O-])c([O-])nc2cc1[N+](=O)[O-].[Na+].[Na+] [Compound 351, CNQX disodium] | – | Compound effect (percent receptor signaling in presence of test compound, relative lux units relative to the SCH23390 control) [1]: 91%
O=C(c1ccc2c(c1)OCCO2)N1CCCCC1 [Compound 352, CX 546] | 97 | –
CNC(=O)[C@H]1O[C@@H](n2cnc3c(NCc4cccc(I)c4)nc(Cl)nc32)[C@H](O)[C@@H]1O [Compound 353, Chloro-IB-MECA] | 120 | –
COc1cccc(OC)c1OCCNCC1COc2ccccc2O1.Cl (stereo not drawn) [Compound 354, WB-4101 hydrochloride] | – | Compound effect (percent receptor signaling in presence of test compound, relative lux units relative to the SCH23390 control) [1]: 101%
O=[N+]([O-])c1cc2nc(O)c(O)nc2cc1[N+](=O)[O-] [Compound 355, DNQX] | 100 | –
C[C@@H]1O[C@@H](O[C@H]2C[C@@H](O)[C@]3(CO)[C@H]4[C@H](O)C[C@]5(C)[C@@H]([C@@H]6COC(=O)C6)CC[C@]5(O)[C@@H]4CC[C@]3(O)C2)[C@H](O)[C@H](O)[C@H]1O [Compound 356, Dihydroouabain] | 56 | –
CC(CCc1ccc(O)cc1)NCCc1ccc(O)c(O)c1 (stereo not drawn) [Compound 357, Dobutamine hydrochloride] | 98 | –
CC(C)[C@H]1CN[C@H](C(=O)O)[C@H]1CC(=O)O [Compound 358, Dihydrokainic acid] | 94 | –
C[N+](C)(C)CCCCCCCCCC[N+](C)(C)C.[Br-].[Br-] [Compound 359, Decamethonium dibromide] | 98 | –
